The text below walks through data of patent US20230232830A1, “METHOD FOR REDUCING OR PREVENTING EFFECT OF NON-BIOLOGICAL STRESS ON PLANT” (NIPPON SODA CO., LTD., priority 2020, published 2023).

The test system of one series is soybean. In words: Bioassay 1, drought stress, soybean test (foliage spray, degree of withering). Conditions: 200 ppm foliage spray; for Withering Index: 2 to 3 leaf stage, 2 days at 25° C., aerial parts cut out, four stages (0: healthy to 3: complete withering), average of test series. The class given is in vivo. As to the method: (§1) A 5-membered heterocyclyl compound dissolved in DMF was diluted with water so that the concentration of the compound was 200 ppm, and a sufficient amount of the diluted solution was foliage-sprayed on corn and soybean at the 2 to 3 leaf stage.
(§2) Corn and soybean foliage-sprayed with a sufficient amount of a diluted solution prepared by removing the compound were used as the untreated plot.
(§3) The sprayed test plants were cultivated for 2 days under the conditions of a temperature of 25° C. and a day length of 14 hours.
(§4) The aerial parts were cut out and the corn or soybean of the untreated plot was left to stand until completely withered. The degree of withering was investigated from the perspective of four stages (0: healthy to 3: complete withering).
Here, with respect to soybean, complete withering refers to a state in which all the leaves of the soybean are withered and the upper part is curved.
(§5) Abscisic acid was used as a control. Abscisic acid (ABA), known as a plant hormone, is produced by the plant itself and is known as an important signal substance that closes the stomata during drought stress to suppress excessive transpiration of water from the leaves, and induces stress tolerance.
The index of ABA indicates the average of the results of a series of 10 tests. The index of the 5-membered heterocyclyl compound (F) indicates the average of the results of a series of 2 tests.

Another series deals with corn. Put plainly: Bioassay 1, drought stress, corn test (foliage spray, degree of withering). In kind it is in vivo. The note with it: 200 ppm foliage spray; for Withering Index: 2 to 3 leaf stage, 2 days at 25° C., aerial parts cut out, four stages (0: healthy to 3: complete withering), average of test series. The protocol: as §1, §2, §3, §4
As for corn, it refers to a bent state.
as §5
The index of ABA indicates the average of the results of a series of 10 tests. The index of the 5-membered heterocyclyl compounds (A) to (F) indicates the average of the results of a series of 2 tests.

A further series has as its system Arabidopsis thaliana. In words: Bioassay 2, salt stress, survival of Arabidopsis thaliana plants in 150 mM NaCl. The class given is in vivo. The note with it: 168 h, 5 ppm compound for 1 day, then 150 mM NaCl for 7 days, green individuals alive, yellowed or bleached dead, read-out: Survival Rate (%). The protocol: Arabidopsis thaliana seeds were sterilized with 70% ethanol and then sown in a petri dish containing HYPONeX (sterilized) diluted 4,000 times with water. The compound was diluted with sterile water so that the concentration of the compound dissolved in DMSO was 5 ppm. 65 μl of each drug solution was dispensed into a 96-well microplate, into which 5 Arabidopsis thaliana plants on their 8th day of sowing were placed and left to stand for 1 day. The next day, the plants were transferred to a well containing 65 μl of 150 mM NaCl and cultured for 7 days. The treatment was performed in two series, and in the investigation, a stereomicroscope was used to determine their survival, with the green individuals identified as alive and the yellowed or bleached individuals as dead.

Consider `CC1=CC(=O)CC(C)(C)[C@@]1(O)/C=C/C(C)=C\C(=O)O` [ABA, Abscisic acid, reference compound], for which the entries for the “Withering Index” value with soybean and with corn were 0.5 and 1.1, respectively.

Consider `N#CCON=C1CN(C(=O)Cc2ccc(-c3noc(C(F)(F)F)n3)cc2)C1` [A], for which the “Withering Index” value with corn worked out at 1.5.

On to `CCON=C1CN(C(=O)C(OC)c2ccc(-c3noc(C(F)(F)F)n3)cc2)C1` (centres unmarked) [B], for which the “Withering Index” value in the series with corn was determined as 1.5.

`O=c1cccnn1Cc1ccc(-c2noc(C(F)(F)F)n2)cc1` [C]: in the series with corn, the “Withering Index” value came to 1.5.

Turning to `CCON=C1CN(C(=O)C(OC)c2ccc(-c3noc(C(F)(F)F)n3)cc2F)C1` (centres unmarked) [Compound 1], the responders at 5 ppm in the series with Arabidopsis thaliana came out at 80%.

On to `C=CCON=C1CN(C(=O)Cc2ccc(-c3noc(C(F)(F)F)n3)cc2)C1` [Compound 2], for which the responders at 5 ppm with Arabidopsis thaliana came to 70%.

`CON=C1CN(c2cc(=O)n(Cc3ccc(-c4noc(C(F)(F)F)n4)cc3)cn2)C1` [Compound 3]: in the series on Arabidopsis thaliana, the responders at 5 ppm stood at 70%.

Take `O=c1cc(OCc2ccc(-c3noc(C(F)(F)F)n3)cc2)ccn1CC1CC1` [Compound 4]: the melting point was in the range of 115 to 117 °C. Besides, in the series with soybean, the “Withering Index” value was determined as 1.5.

In the case of `CSc1nccc(OCc2ccc(-c3noc(C(F)(F)F)n3)cc2)n1` [Compound 5], in the series with Arabidopsis thaliana, the responders at 5 ppm is 80%.

`FC(F)(F)c1nc(-c2ccc(COc3cc(Cl)ncn3)cc2)no1` [Compound 6]: the melting point lay in the range of 144 to 146 °C. Moreover, in the series with corn, the “Withering Index” value was found to be 1.0.

With `FC(F)(F)c1nc(-c2ccc(COc3cc(-n4cncn4)ncn3)cc2)no1` [Compound 7], in the series on Arabidopsis thaliana, the responders at 5 ppm stood at 70%.

`CC(=NOC/C=C/Cl)c1ccc(C2=NOC(O)(C(F)(F)F)C2)cc1` (centres unmarked) [Compound 8] showed a melting point of 126 to 128 °C. Further, the “Withering Index” value with corn is listed as 1.5.

For the molecule `CON=C(C)c1ccc(C2=NOC(OC)(C(F)(F)F)C2)cc1` (centres unmarked) [Compound 9], the melting point was 80 to 82 °C. In addition, in the series with corn, the “Withering Index” value amounted to 1.5.

For `COc1cncn(Cc2ccc(-c3noc(C(F)(F)F)n3)cc2)c1=O` [Compound 10], the melting point lay within 119 to 120 °C. Also, the “Withering Index” value in the series with corn was 1.0.

In turn, `COCCn1cccc(OCc2ccc(-c3noc(C(F)(F)F)n3)cc2)c1=O` [Compound 11] had a melting point of 127 to 130 °C. Further, in the series with corn, the “Withering Index” value was determined as 1.0.

For `O=C(c1ccc(-c2noc(C(F)(F)F)n2)cc1)N1CCCCC1` [D], the responders at 5 ppm in the series with Arabidopsis thaliana came out at 80%. The “Withering Index” value in the series with corn was found to be 1.5.

Take `CC1(NC(=O)c2ccc(-c3noc(C(F)(F)F)n3)cc2)CC1` [E]: in the series on corn, the “Withering Index” value was 1.5.

As for `O=C(NC12CC(C1)C2)c1ccc(-c2noc(C(F)(F)F)n2)cc1` [F], the “Withering Index” value in the series on soybean is listed as 1.5; with corn it was 0.5. The “reduction of drought stress compared with ABA” value in the series on soybean (result in words) is “reduces the drought stress, although to a lesser extent than ABA”; in the series with corn (result in words), “showed an index higher than that of ABA”.

Turning to `CCON=C1CN(C(=O)C(C)c2ccc(-c3noc(C(F)(F)F)n3)cc2)C1` (centres unmarked) [G], the responders at 5 ppm with Arabidopsis thaliana came out at 80%.

`Cc1nc(C)n(Cc2ccc(-c3noc(C(F)(F)F)n3)cc2)c(=O)c1Cl` [H]: the “Withering Index” value in the series on corn is on record as 1.5.

With `O=c1c(Cl)c(Cl)cnn1Cc1ccc(-c2noc(C(F)(F)F)n2)cc1` [J], the “Withering Index” value with corn is 1.0.

As to `O=C(NC1CC1)c1ccn(Cc2ccc(-c3noc(C(F)(F)F)n3)cc2)n1` [K], the “Withering Index” value in the series on corn is 1.0.

Consider `CCOC(=O)c1ccnn1Cc1ccc(-c2noc(C(F)(F)F)n2)cc1` [L], for which the “Withering Index” value in the series on soybean is recorded as 1.5.

`O=C1CCCCN1Cc1ccc(-c2noc(C(F)(F)F)n2)cc1` [M]: the responders at 5 ppm in the series with Arabidopsis thaliana worked out at 70%.
